Results published in patent publication US7049289B1, “Labelled glutamine and lysine analogues” (Amersham PLC, priority 1998, dated 2006).
Where no end group is shown, it is not given here. code Z = not defined here

What was measured:
[1] = Incorporation into clots induced in a rat model (rat inferior vena cava model); assay type: in vivo, rat (Male Wistar); details: for % id/g (clot) / Rel. Conc. (cpm/g of clot by dose/g animal): sacrificed after 60 min
Description: The rats (Male Wistar, 250–350 g) were anaesthetised with 15% urethane. After laparotomy, the vena cava was isolated and freed of surrounding fat tissue. […] The compounds were injected 5 min (fresh clot) and 60 min (aged clot) post-induction. After 60 min the animals were sacrificed and the clot removed, weighed and counted. Other tissues e.g. blood, lung, heart, were also dissected and counted. The uptake of tracer into the clot was determined as the relative concentration (cpm/g of clot by dose/g animal) and clot to background tissue.

[2] = molecular target: T1, fibrin (in vitro human plasma clot) (Homo sapiens, UniProt P02671+P02675+P02679); experiment: Incorporation into human plasma clots in vitro; assay type: biochemical; details: for % specific uptake: % retained (with thrombin) - % retained (no thrombin); for % retained (no thrombin): control without thrombin and calcium chloride (non-specific binding); for % retained (with thrombin): human plasma clot, 60 minutes, ca. 20° C.
T1 construct: about 400 μl of human plasma containing the radiolabelled substrate; from tissue; host or cells: human plasma, clotted in vitro with added thrombin and calcium chloride
T1 sequence (P02671 20-644 isoform P02671-2 limits assumed): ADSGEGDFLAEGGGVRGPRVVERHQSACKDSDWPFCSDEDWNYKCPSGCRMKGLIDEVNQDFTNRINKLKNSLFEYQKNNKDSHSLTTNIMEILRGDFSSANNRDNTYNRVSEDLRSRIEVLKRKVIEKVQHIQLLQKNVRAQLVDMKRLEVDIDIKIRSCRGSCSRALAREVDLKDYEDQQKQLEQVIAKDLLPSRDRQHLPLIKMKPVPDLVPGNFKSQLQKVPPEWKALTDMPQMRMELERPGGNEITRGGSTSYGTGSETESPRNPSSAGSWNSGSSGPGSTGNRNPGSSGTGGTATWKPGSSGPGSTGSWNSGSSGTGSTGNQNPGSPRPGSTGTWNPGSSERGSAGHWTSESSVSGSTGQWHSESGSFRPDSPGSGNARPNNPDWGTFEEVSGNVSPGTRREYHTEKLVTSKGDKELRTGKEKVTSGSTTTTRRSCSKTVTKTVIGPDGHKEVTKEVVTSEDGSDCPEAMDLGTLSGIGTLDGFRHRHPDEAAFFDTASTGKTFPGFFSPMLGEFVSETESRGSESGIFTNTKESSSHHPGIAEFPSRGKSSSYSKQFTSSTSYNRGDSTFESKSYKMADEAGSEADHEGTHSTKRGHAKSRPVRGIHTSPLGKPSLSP
T1 sequence (P02675 45-491 limits assumed): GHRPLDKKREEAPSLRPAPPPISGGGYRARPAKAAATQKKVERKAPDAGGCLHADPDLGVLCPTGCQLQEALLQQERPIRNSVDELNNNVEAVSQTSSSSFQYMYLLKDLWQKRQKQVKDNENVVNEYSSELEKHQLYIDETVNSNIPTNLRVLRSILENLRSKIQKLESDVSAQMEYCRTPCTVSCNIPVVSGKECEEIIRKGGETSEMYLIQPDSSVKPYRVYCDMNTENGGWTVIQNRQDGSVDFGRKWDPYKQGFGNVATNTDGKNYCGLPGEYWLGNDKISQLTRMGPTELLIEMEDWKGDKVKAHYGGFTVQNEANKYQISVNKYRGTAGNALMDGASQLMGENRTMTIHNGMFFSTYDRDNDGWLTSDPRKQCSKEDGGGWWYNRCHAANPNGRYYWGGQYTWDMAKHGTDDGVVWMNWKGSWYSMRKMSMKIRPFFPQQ
T1 sequence (P02679 27-437 isoform P02679-2 limits assumed): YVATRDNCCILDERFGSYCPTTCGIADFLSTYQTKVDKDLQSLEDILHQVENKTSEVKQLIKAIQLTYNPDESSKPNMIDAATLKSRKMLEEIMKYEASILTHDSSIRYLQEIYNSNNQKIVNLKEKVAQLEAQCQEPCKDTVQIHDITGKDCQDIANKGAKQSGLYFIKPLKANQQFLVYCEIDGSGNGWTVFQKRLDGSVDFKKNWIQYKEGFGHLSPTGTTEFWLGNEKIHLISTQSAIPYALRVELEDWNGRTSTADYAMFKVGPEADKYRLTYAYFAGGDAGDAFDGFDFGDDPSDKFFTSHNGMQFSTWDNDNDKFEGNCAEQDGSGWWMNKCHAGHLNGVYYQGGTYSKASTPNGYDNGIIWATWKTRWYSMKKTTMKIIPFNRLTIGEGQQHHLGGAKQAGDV
Description: Incorporation of radiolabelled substrates into fibrin was investigated by induction of an in vitro human plasma clot in the following manner. To a siliconised 5 ml glass vial was added, (a) 800 μl of Tris(hydroxymethyl)aminomethane buffered saline pH 7.5 containing calcium chloride (50 mM Tris, 150 mM sodium chloride, 4 mM calcium chloride.), (b) about 40 μl of physiological salt solution containing 100 units of thrombin per ml, (c) about 400 μl of human plasma containing the radiolabelled substrate at a concentration of typically 10 kBq/ml. To aid induction of clot a roughened glass rod was added to the reaction vial. Control vials were prepared similarly but with the omission of thrombin and calcium chloride.
After incubation of the test solution at ambient laboratory temperature (ca. 20° C.) for 60 minutes the reaction was discontinued with the addition of about 400 μl of a cold solution of 33.5 mM ethylenediaminetetra-acetic acid disodium salt. Clots were separated from serum by vacuum filtration onto […] nitrocellulose filters (pre-soaked in 1.5% BSA/tris(hydroxymethyl)aminoethae buffered saline pH 7.5 containing 0.1% Tween 20) and washed with about 2×10 ml of tris(hydroxymethyl)aminomethane buffered saline pH 7.5 containing Tween 20 to a final concentration of 0.1% v/v. The proportion of total radioactivity was calculated by counting in suitable detection apparatus.
The fraction of radioactivity retained on the filter, after subtraction of the non-specific binding determined from the control, is a measure of incorporation into the filtered clots.

[3] = Aged Clots: injected 60 min post-induction
[4] = Fresh Clots: injected 5 min post-induction

Work on “(CF3)2(C6H3)-NQEQVSPYTLLKG-Pn216 ({(CF3)2(C6H3)}-NQEQVSPYTLLKG-Pn216; also: 99mTc complex) [^99mTc-Cmpd 10]” yielded a Clot/blood ([1]; Aged Clots) of 6, a Clot/heart ([1]; Aged Clots) of 16 and a Clot/liver ([1]; Aged Clots) of 5. The Clot/lung ([1]; Aged Clots) was 6, the “% id/g (clot)” value [1, 3] was 2.9 ± 1.4 % id/g and the “Rel. Conc. (cpm/g of clot by dose/g animal)” value [1, 3] was 6.3 ± 2.7. It also gave a Clot/blood ([1]; Fresh Clots) of 4, a Clot/heart ([1]; Fresh Clots) of 10 and a Clot/liver ([1]; Fresh Clots) of 5. For the same substance, the Clot/lung ([1]; Fresh Clots) was 5, the “% id/g (clot)” value [1, 4] was 2.9 ± 0.5 % id/g and the “Rel. Conc. (cpm/g of clot by dose/g animal)” value [1, 4] was 6.5 ± 1.2. For the same substance, the “% specific uptake” value [2] was 65.7%, the “% retained (no thrombin)” value [2] was 0.2% and the “% retained (with thrombin)” value [2] was 65.9%.
“Ac-(D-N)QEQVSP(D-Y)TLL(D-K)G-Pn216 [^99mTc-Cmpd 32]” showed a Clot/blood ([1]; Aged Clots) of 3, a Clot/heart ([1]; Aged Clots) of 43 and a Clot/liver ([1]; Aged Clots) of 21. The Clot/lung ([1]; Aged Clots) was 15, the “% id/g (clot)” value [1, 3] was 0.7 ± 0.1 % id/g and the “Rel. Conc. (cpm/g of clot by dose/g animal)” value [1, 3] was 2.0 ± 0.4. It also gave a Clot/blood ([1]; Fresh Clots) of 10, a Clot/heart ([1]; Fresh Clots) of 26 and a Clot/liver ([1]; Fresh Clots) of 27. The Clot/lung ([1]; Fresh Clots) was 11, the “% id/g (clot)” value [1, 4] was 1.7 ± 0.7 % id/g and the “Rel. Conc. (cpm/g of clot by dose/g animal)” value [1, 4] was 4.6 ± 1.9. The “% specific uptake” value [2] was 19.8%, the “% retained (no thrombin)” value [2] was 0.4% and the “% retained (with thrombin)” value [2] was 20.2%.
Work on “Ac-GQDPVKG-Pn216 (also: 99mTc complex) [^99mTc-Cmpd 48]” yielded a Clot/blood ([1]; Aged Clots) of 1, a Clot/heart ([1]; Aged Clots) of 32 and a Clot/liver ([1]; Aged Clots) of 26. For the same substance, the Clot/lung ([1]; Aged Clots) was 109, the “% id/g (clot)” value [1, 3] was 0.2 ± 0.04 % id/g and the “Rel. Conc. (cpm/g of clot by dose/g animal)” value [1, 3] was 0.8 ± 0.2. It also gave a Clot/blood ([1]; Fresh Clots) of 0.6, a Clot/heart ([1]; Fresh Clots) of 2 and a Clot/liver ([1]; Fresh Clots) of 3. The Clot/lung ([1]; Fresh Clots) was 0.9, the “% id/g (clot)” value [1, 4] was 0.3 ± 0.2 % id/g and the “Rel. Conc. (cpm/g of clot by dose/g animal)” value [1, 4] was 1.0 ± 0.5. For the same substance, the “% specific uptake” value [2] was 10.5%, the “% retained (no thrombin)” value [2] was 0.1% and the “% retained (with thrombin)” value [2] was 10.6%. The “in vitro clot uptake (in words)” value [2] was “significant reduction in uptake”.
For “Ac-LEFDTQSKNILG-Pn216 (also: 99mTc complex) [^99mTc-Cmpd 47]”, the Clot/blood ([1]; Aged Clots) was 1, the Clot/heart ([1]; Aged Clots) was 46 and the Clot/liver ([1]; Aged Clots) was 44. The Clot/lung ([1]; Aged Clots) was 24, the “% id/g (clot)” value [1, 3] was 0.5 ± 0.3 % id/g and the “Rel. Conc. (cpm/g of clot by dose/g animal)” value [1, 3] was 1.5 ± 0.8. For the same substance, the Clot/blood ([1]; Fresh Clots) was 0.8, the Clot/heart ([1]; Fresh Clots) was 3 and the Clot/liver ([1]; Fresh Clots) was 1. The Clot/lung ([1]; Fresh Clots) was 1, the “% id/g (clot)” value [1, 4] was 0.8 ± 0.7 % id/g and the “Rel. Conc. (cpm/g of clot by dose/g animal)” value [1, 4] was 2.2 ± 2.0. For the same substance, the “% specific uptake” value [2] was 49.8%, the “% retained (no thrombin)” value [2] was 0.1% and the “% retained (with thrombin)” value [2] was 49.9%.
In the case of “Ac-NQEQV(D-S)P(D-Y)TLL(D-K)G-Pn216 [^99mTc-Cmpd 30]”, the “% specific uptake” value [2] is reported as 14.7%, the “% retained (no thrombin)” value [2] is reported as 0.2% and the “% retained (with thrombin)” value [2] is reported as 14.9%.
In the case of “Ac-NQEQVSPYTLLKG-(PEG)3.4k-Pn44 (Ac-NQEQVSPYTLLKG-{PEG 3.4k-Pn44}; also: 99mTc complex) [^99mTc-Cmpd 40]”, the “% specific uptake” value [2] is reported as 13.2%, the “% retained (no thrombin)” value [2] is reported as 0.1% and the “% retained (with thrombin)” value [2] is reported as 13.3%.
In the case of “NQEQVSPYTLLKG-Pn216 (also: 99mTc complex) [^99mTc-Cmpd 6]”, the “% specific uptake” value [2] is reported as 64.3%, the “% retained (no thrombin)” value [2] is reported as 4.3% and the “% retained (with thrombin)” value [2] is reported as 68.6%.
With “Z-NQEQVSP(I2-Y)TLLKG-Pn216 [^99mTc-Cmpd 25]” the “% specific uptake” value [2] was 63.7%, the “% retained (no thrombin)” value [2] was 4.3% and the “% retained (with thrombin)” value [2] was 68.0%.
In the case of “Z-NQEQVSPYG-Pn216 ({code Z}-NQEQVSPYG-Pn216; reading uncertain; also: 99mTc complex, printed as Z-NQEQVSPYG-Pn216) [^99mTc-Cmpd 18]”, the “% specific uptake” value [2] is reported as 9.7%, the “% retained (no thrombin)” value [2] is reported as 0.1% and the “% retained (with thrombin)” value [2] is reported as 9.8%. For the same substance, the “in vitro clot uptake (in words)” value [2] was “significant reduction in uptake”.
